From patent US10004701B2, “Methods and compositions for treating infection” (UNIVERSITY OF ROCHESTER, priority 2012, dated 2018)
Counter-ions that a name gives are not always drawn. Like-named read-outs stand apart in the source and are kept apart here.

What was measured:
Test in all cases: AK assay 384-well format, Prestwick library screening
[1] = tested on: P. aeruginosa; type: cell-based, Pseudomonas aeruginosa; details: for fold induction at 50 µM: Pseudomonas aeruginosa, 3 h
[2] = tested on: E. coli; type: cell-based, Escherichia coli; details: for fold induction at 50 µM: Escherichia coli, 3 h
[3] = tested on: K. pneumoniae; type: cell-based, Klebsiella pneumoniae; details: for fold induction at 50 µM: Klebsiella pneumoniae, 3 h
[4] = tested on: E. faecium; type: cell-based, Enterococcus faecium; details: for fold induction at 50 µM: Enterococcus faecium, 3 h
[5] = tested on: A. baumannii strain 98-37-09; type: cell-based, Acinetobacter baumannii; details: for fold induction at 50 µM: Acinetobacter baumannii, 983709, 3 h
[6] = tested on: S. aureus strain USA300-0114; type: cell-based, Staphylococcus aureus; details: for fold induction at 50 µM: Staphylococcus aureus, USA300, 3 h
[7] = tested on: E. cloacae; type: cell-based, Enterobacter cloacae; details: Enterobacter cloacae, 3 h; planktonic E. cloacae; 50 μM final drug concentration; cutoff for positive-scoring molecules 3-fold increase; read-out: AK-based Prestwick Library Screening Results, E. cloacae (increase in extracellular AK activity)
[8] = planktonic E. coli, 50 μM final drug concentration, 384-well, […]

## COc1ccc(CCN(C)CCCC(C#N)(c2ccc(OC)c(OC)c2)C(C)C)cc1OC.Cl (stereo not shown) [Verapamyl hydrochloride]
[1]; planktonic P. aeruginosa, 50 μM final drug concentration, 384-well, cutoff for positive-scoring molecules 3-fold increase
  AK-based Prestwick Library Screening Results: P. aeruginosa (increase in extracellular AK activity): 1.2
[2]; [8]
  AK-based Prestwick Library Screening Results: E. coli (increase in extracellular AK activity): 1.3
[3]; planktonic K. pneumoniae, 50 μM final drug concentration, 384-well, cutoff for positive-scoring molecules 3-fold increase
  AK-based Prestwick Library Screening Results: K. pneumoniae (increase in extracellular AK activity): 0.9
[4]; planktonic E. faecium, 50 μM final drug concentration, 384-well, cutoff for positive-scoring molecules 3-fold increase
  AK-based Prestwick Library Screening Results: E. faecium (increase in extracellular AK activity): 0.9
[5]; planktonic A. baumannii, 50 μM final drug concentration, 384-well, cutoff for positive-scoring molecules 3-fold increase
  AK-based Prestwick Library Screening Results: A. baumannii (increase in extracellular AK activity): 1.5
[6]; planktonic S. aureus, 50 μM final drug concentration, 384-well, cutoff for positive-scoring molecules 3-fold increase
  AK-based Prestwick Library Screening Results: S. aureus (increase in extracellular AK activity): 1.2

## O=C1CC[C@@]2(O)[C@H]3Cc4ccc(O)c5c4[C@@]2(CCN3CC2CC2)[C@H]1O5 [Naltrexone hydrochloride dihydrate]
[1]; read-out: AK-based Prestwick Library Screening Results, P. aeruginosa (increase in extracellular AK activity)
  fold induction at 50 µM: 0.8
[2]; read-out: AK-based Prestwick Library Screening Results, E. coli (increase in extracellular AK activity)
  fold induction at 50 µM: 0.9
[3]; read-out: AK-based Prestwick Library Screening Results, K. pneumoniae (increase in extracellular AK activity)
  fold induction at 50 µM: 0.6
[4]; read-out: AK-based Prestwick Library Screening Results, E. faecium (increase in extracellular AK activity)
  fold induction at 50 µM: 1
[5]; read-out: AK-based Prestwick Library Screening Results, A. baumannii (increase in extracellular AK activity)
  fold induction at 50 µM: 0.9
[6]; read-out: AK-based Prestwick Library Screening Results, S. aureus (increase in extracellular AK activity)
  fold induction at 50 µM: 0.7

## COc1cc2nc(N3CCN(C(=O)c4ccco4)CC3)nc(N)c2cc1OC [Prazosin hydrochloride]
[1]; 50 μM final drug concentration, cutoff for positive-scoring molecules 3-fold increase, read-out: AK-based Prestwick Library Screening Results, P. aeruginosa (fold increase in extracellular AK activity)
  fold induction at 50 µM: 1.1
[2]; 50 μM final drug concentration, cutoff for positive-scoring molecules 3-fold increase, read-out: AK-based Prestwick Library Screening Results, E. coli (fold increase in extracellular AK activity)
  fold induction at 50 µM: 1.2
[3]; 50 μM final drug concentration, cutoff for positive-scoring molecules 3-fold increase, read-out: AK-based Prestwick Library Screening Results, K. pneumoniae (fold increase in extracellular AK activity)
  fold induction at 50 µM: 0.9
[4]; 50 μM final drug concentration, cutoff for positive-scoring molecules 3-fold increase, read-out: AK-based Prestwick Library Screening Results, E. faecium (fold increase in extracellular AK activity)
  fold induction at 50 µM: 1.1
[5]; 50 μM final drug concentration, cutoff for positive-scoring molecules 3-fold increase, read-out: AK-based Prestwick Library Screening Results, A. baumannii (fold increase in extracellular AK activity)
  fold induction at 50 µM: 1.4
[6]; 50 μM final drug concentration, cutoff for positive-scoring molecules 3-fold increase, read-out: AK-based Prestwick Library Screening Results, S. aureus (fold increase in extracellular AK activity)
  fold induction at 50 µM: 1.4

## CN1[C@@H]2CC[C@H]1C[C@@H](OC(=O)C(CO)c1ccccc1)C2 (stereo partly shown) [Atropine sulfate monohydrate]
[1]; planktonic P. aeruginosa, 50 μM final drug concentration, […], read-out: AK-based Prestwick Library Screening Results, P. aeruginosa (increase in extracellular AK activity)
  fold induction at 50 µM: 0.5
[2]; planktonic E. coli, 50 μM final drug concentration, […], read-out: AK-based Prestwick Library Screening Results, E. coli (increase in extracellular AK activity)
  fold induction at 50 µM: 0.6
[3]; planktonic K. pneumoniae, 50 μM final drug concentration, […], read-out: AK-based Prestwick Library Screening Results, K. pneumoniae (increase in extracellular AK activity)
  fold induction at 50 µM: 0.5
[4]; planktonic E. faecium, 50 μM final drug concentration, […], read-out: AK-based Prestwick Library Screening Results, E. faecium (increase in extracellular AK activity)
  fold induction at 50 µM: 0.8
[5]; planktonic A. baumannii, 50 μM final drug concentration, […], read-out: AK-based Prestwick Library Screening Results, A. baumannii (increase in extracellular AK activity)
  fold induction at 50 µM: 0.5
[6]; planktonic S. aureus, 50 μM final drug concentration, […], read-out: AK-based Prestwick Library Screening Results, S. aureus (increase in extracellular AK activity)
  fold induction at 50 µM: 0.5

## CN1[C@@H]2CC[C@H]1C[C@@H](OC(=O)[C@H](CO)c1ccccc1)C2 [Hyoscyamine (L)]
[1]; planktonic P. aeruginosa, 50 μM final drug concentration, 384-well, […]
  AK-based Prestwick Library Screening Results: P. aeruginosa (increase in extracellular AK activity): 1.2
[2]; [8]
  AK-based Prestwick Library Screening Results: E. coli (increase in extracellular AK activity): 1.3
[3]; planktonic K. pneumoniae, 50 μM final drug concentration, 384-well, […]
  AK-based Prestwick Library Screening Results: K. pneumoniae (increase in extracellular AK activity): 1.2
[4]; planktonic E. faecium, 50 μM final drug concentration, 384-well, […]
  AK-based Prestwick Library Screening Results: E. faecium (increase in extracellular AK activity): 1.0
[5]; planktonic A. baumannii, 50 μM final drug concentration, 384-well, […]
  AK-based Prestwick Library Screening Results: A. baumannii (increase in extracellular AK activity): 1.4
[6]; planktonic S. aureus, 50 μM final drug concentration, 384-well, […]
  AK-based Prestwick Library Screening Results: S. aureus (increase in extracellular AK activity): 1.2

## Oc1ccc(C=Cc2cc(O)cc(O)c2)cc1 [Resveratrol]
[7]
  fold induction at 50 µM: 0.1

## Clc1ccccc1CN1CCc2sccc2C1 [Ticlopidine hydrochloride]
[1]; 50 μM final drug concentration, 384-well format, cutoff for positive-scoring molecules 3-fold increase, read-out: AK-based Prestwick Library Screening Results, P. aeruginosa (increase in extracellular AK activity)
  fold induction at 50 µM: 1.1
[2]; 50 μM final drug concentration, 384-well format, cutoff for positive-scoring molecules 3-fold increase, read-out: AK-based Prestwick Library Screening Results, E. coli (increase in extracellular AK activity)
  fold induction at 50 µM: 1.3
[3]; 50 μM final drug concentration, 384-well format, cutoff for positive-scoring molecules 3-fold increase, read-out: AK-based Prestwick Library Screening Results, K. pneumoniae (increase in extracellular AK activity)
  fold induction at 50 µM: 1
[4]; 50 μM final drug concentration, 384-well format, cutoff for positive-scoring molecules 3-fold increase, read-out: AK-based Prestwick Library Screening Results, E. faecium (increase in extracellular AK activity)
  fold induction at 50 µM: 1
[5]; 50 μM final drug concentration, 384-well format, cutoff for positive-scoring molecules 3-fold increase, read-out: AK-based Prestwick Library Screening Results, A. baumannii (increase in extracellular AK activity)
  fold induction at 50 µM: 1.1
[6]; 50 μM final drug concentration, 384-well format, cutoff for positive-scoring molecules 3-fold increase, read-out: AK-based Prestwick Library Screening Results, S. aureus (increase in extracellular AK activity)
  fold induction at 50 µM: 0.8

## C=C[C@H]1C[N@@]2CC[C@H]1C[C@@H]2[C@@H](O)c1ccnc2ccc(OC)cc12 [Quinidine hydrochloride monohydrate]
[1]; 50 μM final drug concentration, 384-well format, […], read-out: AK-based Prestwick Library Screening Results, P. aeruginosa (increase in extracellular AK activity)
  fold induction at 50 µM: 0.9
[2]; 50 μM final drug concentration, 384-well format, […], read-out: AK-based Prestwick Library Screening Results, E. coli (increase in extracellular AK activity)
  fold induction at 50 µM: 1
[3]; 50 μM final drug concentration, 384-well format, […], read-out: AK-based Prestwick Library Screening Results, K. pneumoniae (increase in extracellular AK activity)
  fold induction at 50 µM: 0.8
[4]; 50 μM final drug concentration, 384-well format, […], read-out: AK-based Prestwick Library Screening Results, E. faecium (increase in extracellular AK activity)
  fold induction at 50 µM: 1
[5]; 50 μM final drug concentration, 384-well format, […], read-out: AK-based Prestwick Library Screening Results, A. baumannii (increase in extracellular AK activity)
  fold induction at 50 µM: 0.9
[6]; 50 μM final drug concentration, 384-well format, […], read-out: AK-based Prestwick Library Screening Results, S. aureus (increase in extracellular AK activity)
  fold induction at 50 µM: 0.9

## CCOC(=O)c1cncn1[C@H](C)c1ccccc1 [Etomidate]
[1]; 50 μM final drug concentration, […], read-out: AK-based Prestwick Library Screening Results, P. aeruginosa (fold increase in extracellular AK activity)
  fold induction at 50 µM: 0.4
[2]; 50 μM final drug concentration, […], read-out: AK-based Prestwick Library Screening Results, E. coli (fold increase in extracellular AK activity)
  fold induction at 50 µM: 0.5
[3]; 50 μM final drug concentration, […], read-out: AK-based Prestwick Library Screening Results, K. pneumoniae (fold increase in extracellular AK activity)
  fold induction at 50 µM: 0.4
[4]; 50 μM final drug concentration, […], read-out: AK-based Prestwick Library Screening Results, E. faecium (fold increase in extracellular AK activity)
  fold induction at 50 µM: 0.9
[5]; 50 μM final drug concentration, […], read-out: AK-based Prestwick Library Screening Results, A. baumannii (fold increase in extracellular AK activity)
  fold induction at 50 µM: 0.3
[6]; 50 μM final drug concentration, […], read-out: AK-based Prestwick Library Screening Results, S. aureus (fold increase in extracellular AK activity)
  fold induction at 50 µM: 0.3

## CN(C)CCCN1c2ccccc2CCc2ccccc21 [Imipramine hydrochloride]
[1]; planktonic P. aeruginosa, 50 μM final drug concentration, 384-well, cutoff for positive-scoring molecules 3-fold increase, read-out: AK-based Prestwick Library Screening Results: P. aeruginosa (increase in extracellular AK activity)
  fold induction at 50 µM: 1.1
[2]; planktonic E. coli, 50 μM final drug concentration, 384-well, cutoff for positive-scoring molecules 3-fold increase, read-out: AK-based Prestwick Library Screening Results: E. coli (increase in extracellular AK activity)
  fold induction at 50 µM: 1.2
[3]; planktonic K. pneumoniae, 50 μM final drug concentration, 384-well, cutoff for positive-scoring molecules 3-fold increase, read-out: AK-based Prestwick Library Screening Results: K. pneumoniae (increase in extracellular AK activity)
  fold induction at 50 µM: 1
[4]; planktonic E. faecium, 50 μM final drug concentration, 384-well, cutoff for positive-scoring molecules 3-fold increase, read-out: AK-based Prestwick Library Screening Results: E. faecium (increase in extracellular AK activity)
  fold induction at 50 µM: 0.9
[5]; planktonic A. baumannii, 50 μM final drug concentration, 384-well, cutoff for positive-scoring molecules 3-fold increase, read-out: AK-based Prestwick Library Screening Results: A. baumannii (increase in extracellular AK activity)
  fold induction at 50 µM: 1.3
[6]; planktonic S. aureus, 50 μM final drug concentration, 384-well, cutoff for positive-scoring molecules 3-fold increase, read-out: AK-based Prestwick Library Screening Results: S. aureus (increase in extracellular AK activity)
  fold induction at 50 µM: 1.2
